Laboratory results: ChEMBL document CHEMBL5724914, “Linking interpersonal differences in gut microbiota composition and drug biotransformation activity” (2024)

Key:
[1] = (§1) The drug is tested on WLS-370 corresponding to human gut metagenome with ENA study accession number: PRJEB37062 and ENA sample accession number: ERS12561793 for biotransformation under anaerobic condition. The drug concentrations were measured over 9 timepoints collected between 0 and 24 hours of incubation by liquid-chromatography-coupled mass spectrometry (LC–MS); details: 2 µM
[2] = as §1, with “WLS-350” for “WLS-370”, “ERS12561789” for “ERS12561793”; details: 2 µM
[3] = as §1, with “WLS-310” for “WLS-370”, “ERS12561785” for “ERS12561793”; details: 2 µM
[4] = as §1, with “WLS-240” for “WLS-370”, “ERS12561773” for “ERS12561793”; details: 2 µM
[5] = as §1, with “WLS-220” for “WLS-370”, “ERS12561769” for “ERS12561793”; details: 2 µM
[6] = as §1, with “WLS-170” for “WLS-370”, “ERS12561762” for “ERS12561793”; details: 2 µM
[7] = as §1, with “WLS-098” for “WLS-370”, “ERS12561754” for “ERS12561793”; details: 2 µM
[8] = as §1, with “WLS-090” for “WLS-370”, “ERS12561753” for “ERS12561793”; details: 2 µM
[9] = as §1, with “WLS-086” for “WLS-370”, “ERS12561752” for “ERS12561793”; details: 2 µM
[10] = as §1, with “WLS-077” for “WLS-370”, “ERS12561750” for “ERS12561793”; details: 2 µM
[11] = as §1, with “WLS-073” for “WLS-370”, “ERS12561749” for “ERS12561793”; details: 2 µM
[12] = as §1, with “WLS-069” for “WLS-370”, “ERS12561748” for “ERS12561793”; details: 2 µM
[13] = as §1, with “WLS-039” for “WLS-370”, “ERS12561746” for “ERS12561793”; details: 2 µM
[14] = as §1, with “WLS-038” for “WLS-370”, “ERS12561745” for “ERS12561793”; details: 2 µM
[15] = as §1, with “WLS-010” for “WLS-370”, “ERS12561743” for “ERS12561793”; details: 2 µM
[16] = as §1, with “WLS-007” for “WLS-370”, “ERS12561742” for “ERS12561793”; details: 2 µM
[17] = human gut metagenome, 24 h, 2 µM
[18] = human gut metagenome, 24 h, 2 µM; remark: listed apart in the source
[19] = human gut metagenome, 24 h, 2 µM; remark: listed apart in the source
[20] = human gut metagenome, 24 h, 2 µM; remark: listed apart in the source
[21] = human gut metagenome, 24 h, 2 µM; remark: listed apart in the source
[22] = human gut metagenome, 24 h, 2 µM; remark: listed apart in the source
[23] = human gut metagenome, 24 h, 2 µM; remark: listed apart in the source
[24] = human gut metagenome, 24 h, 2 µM; remark: listed apart in the source
[25] = human gut metagenome, 24 h, 2 µM; remark: listed apart in the source
[26] = human gut metagenome, 24 h, 2 µM; remark: listed apart in the source
[27] = human gut metagenome, 24 h, 2 µM; remark: listed apart in the source
[28] = human gut metagenome, 24 h, 2 µM; remark: listed apart in the source
[29] = human gut metagenome, 24 h, 2 µM; remark: listed apart in the source
[30] = human gut metagenome, 24 h, 2 µM; remark: listed apart in the source
[31] = human gut metagenome, 24 h, 2 µM; remark: listed apart in the source
[32] = human gut metagenome, 24 h, 2 µM; remark: listed apart in the source
[33] = human gut metagenome, 24 h, 2 µM; remark: listed apart in the source
[34] = human gut metagenome, 24 h, 2 µM; remark: listed apart in the source
[35] = human gut metagenome, 24 h, 2 µM; remark: listed apart in the source
[36] = human gut metagenome, 24 h, 2 µM; remark: listed apart in the source
[37] = human gut metagenome, 24 h, 2 µM; remark: listed apart in the source
[38] = human gut metagenome, 24 h, 2 µM; remark: listed apart in the source
[39] = human gut metagenome, 24 h, 2 µM; remark: listed apart in the source
[40] = human gut metagenome, 24 h, 2 µM; remark: listed apart in the source
[41] = human gut metagenome, 24 h, 2 µM; remark: listed apart in the source
[42] = human gut metagenome, 24 h, 2 µM; remark: listed apart in the source
[43] = human gut metagenome, 24 h, 2 µM; remark: listed apart in the source
[44] = human gut metagenome, 24 h, 2 µM; remark: listed apart in the source
[45] = human gut metagenome, 24 h, 2 µM; remark: listed apart in the source
[46] = human gut metagenome, 24 h, 2 µM; remark: listed apart in the source
[47] = human gut metagenome, 24 h, 2 µM; remark: listed apart in the source
[48] = human gut metagenome, 24 h, 2 µM; remark: listed apart in the source
[49] = human gut metagenome, 24 h, 2 µM; remark: listed apart in the source
[50] = human gut metagenome, 24 h, 2 µM; remark: listed apart in the source
[51] = human gut metagenome, 24 h, 2 µM; remark: listed apart in the source
[52] = human gut metagenome, 24 h, 2 µM; remark: listed apart in the source
[53] = human gut metagenome, 24 h, 2 µM; remark: listed apart in the source
[54] = as §1, with “WLS-082” for “WLS-370”, “ERS12561751” for “ERS12561793”; details: 2 µM
[55] = as §1, with “WLS-052” for “WLS-370”, “ERS12561747” for “ERS12561793”; details: 2 µM
[56] = as §1, with “WLS-027” for “WLS-370”, “ERS12561744” for “ERS12561793”; details: 2 µM
[57] = as §1, with “WLS-006” for “WLS-370”, “ERS12561741” for “ERS12561793”; details: 2 µM
[58] = human gut metagenome, 24 h, 2 µM; remark: listed apart in the source
[59] = human gut metagenome, 24 h, 2 µM; remark: listed apart in the source
[60] = human gut metagenome, 24 h, 2 µM; remark: listed apart in the source

Measured: Bacterial Biotransformation
Also: call rule not given here.

CC#CCn1c(N2CCC[C@@H](N)C2)nc2c1c(=O)n(Cc1nc(C)c3ccccc3n1)c(=O)n2C [LINAGLIPTIN]
Compound metabolized: [11] | [13] | [31]
not listed: [54] | [55] | [56] | [57] | [58] | [59] | [60]
Compound NOT metabolized: all other assays above

CCOC(=O)C1=C(C)NC(C)=C(C(=O)OC)C1c1cccc([N+](=O)[O-])c1 (configuration not stated) [NITRENDIPINE]
Compound NOT metabolized: [16] | [40]
not listed: [48]
Compound metabolized: all other assays above
